Data: patent publication US6433165B1, “Chemokine receptor antagonists and methods of use therefor” (Millennium Pharmaceuticals, Inc., priority 1998, dated 2002)

These compounds were tested against T1, RANTES / MIP-1α binding to THP-1 cell membranes (Homo sapiens, UniProt P32246) (assay: Receptor binding assay, 125I-RANTES or 125I-MIP-1α binding to THP-1 cell membranes). Conditions: not given.
T1 sequence (P32246 1-355): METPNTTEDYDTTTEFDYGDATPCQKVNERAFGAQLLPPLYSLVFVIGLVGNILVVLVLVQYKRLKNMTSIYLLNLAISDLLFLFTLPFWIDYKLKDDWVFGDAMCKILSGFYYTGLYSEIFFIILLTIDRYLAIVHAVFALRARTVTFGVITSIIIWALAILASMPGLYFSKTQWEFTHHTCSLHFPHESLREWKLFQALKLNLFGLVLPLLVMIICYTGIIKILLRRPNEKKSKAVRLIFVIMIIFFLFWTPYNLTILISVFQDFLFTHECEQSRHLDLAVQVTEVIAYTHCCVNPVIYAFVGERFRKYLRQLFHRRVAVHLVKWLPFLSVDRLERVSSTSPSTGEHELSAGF
Experimental: Membranes were prepared from THP-1 cells (ATCC #TIB202). Cells were harvested by centrifugation, washed twice with PBS (phosphate-buffered saline), and the cell pellets were frozen at −70 to −85° C. […] This procedure results in cell lysis. The suspension was mixed well to resuspend all of the frozen cell pellet. Nuclei and cell debris were removed by centrifugation of 400×g for 10 minutes at 4° C. The supernatant was transferred to a fresh tube and the membrane fragments were collected by centrifugation at 25,000×g for 30 minutes at 4° C. The supernatant was aspirated and the pellet was resuspended in freezing buffer consisting of 10 mM HEPES pH 7.5, 300 mM sucrose, 1 μg/ml each aprotinin, leupeptin, and chymostatin, and 10 μg/ml PMSF (approximately 0.1 ml per each 10^8 cells). All clumps were resolved using a minihomogenizer, and the total protein concentration was determined using a protein assay kit (Bio-Rad, Hercules, Calif., cat #500-0002). The membrane solution was then aliquoted and frozen at −70 to −85° C. until needed. Binding Assays utilized the membranes described above. […] The binding reactions were terminated by harvesting the membranes by rapid filtration through glass fiber filters (GF/B or GF/C, Packard) which were presoaked in 0.3% polyethyleneimine. The filters were rinsed with approximately 600 μl of binding buffer containing 0.5 M NaCl, dried, and the amount of bound radioactivity was determined by scintillation counting in a Topcount beta-plate counter.

| SMILES | IC50 [µM] |
| --- | --- |
| N#CC1(CCCN2CCC(O)(c3ccc(Cl)cc3)CC2)c2ccccc2C[S+]([O-])c2ccccc21 (single isomer, unassigned) [Example 14, 4-(4-Chlorophenyl)-1-[3-(11-cyano-6,11-dihydro-5-oxodibenzo[b,e]thiepin-11-yl)propyl]piperidin-4-ol] | < 1 |
| N#CC1(CCCN2CCC(O)(c3ccc(Cl)cc3)CC2)c2ccccc2CCc2ccccc21 [Example 2, 4-(4-Chlorophenyl)-1-[3-(5-cyano-10,11-dihydro-5H-dibenzo[a,d]cycloheptene-5-yl)propyl]piperidin-4-ol] | < 1 |
| N#CC1(CCCN2CCC(O)(c3ccc(Cl)cc3)CC2)c2ccccc2CSc2ccccc21 (centres unmarked) [Example 10, 4-(4-Chlorophenyl)-1-[3-(11-cyano-6,11-dihydrodibenzo[b,e]thiepin-11-yl)propyl]piperidin-4-ol] | < 1 |
| O=C(NCC1(CCCN2CCC(O)(c3ccc(Cl)cc3)CC2)c2ccccc2CSc2ccccc21)Oc1ccccc1 (centres unmarked) [Example 22, Phenyl N-[11-[3-(4-(4-chlorophenyl)-4-hydroxypiperidino)propyl]-6,11-dihydrodibenzo[b,e]thiepin-11-yl)methyl Carbamate] | < 1 |
| O=C(CCN1CCC(O)(c2ccc(Cl)cc2)CC1)C1c2ccccc2CCc2ccccc21 [Example 24, 4-(4-Chlorophenyl)-1-[3-(10,11-dihydro-5H-dibenzo[a,d]cycloheptene-5-yl)-3-propioyl]piperidin-4-ol] | < 1 |

Same assay, conditions: 125I-RANTES or 125I-MIP-1α as ligand; THP-1 cell membranes; 60 min at room temperature; read-out: IC50 (inhibitor concentration required for 50% inhibition of specific binding)

| SMILES | IC50 [µM] |
| --- | --- |
| N#CC1(CCCN2CCC(O)(c3ccc(Cl)cc3)CC2)c2ccccc2C=Cc2ccccc21 [Example 1, 4-(4-Chlorophenyl)1-[3-(5-cyano-5H-dibenzo[a,d]cycloheptene-5-yl)propyl]piperidin-4-ol] | < 1 |
| N#CC1(CCCN2CCC(O)(c3ccc(Cl)cc3)CC2)c2ccccc2COc2ccccc21 (centres unmarked) [Example 3, 4-(4-Chlorophenyl)-1-[3-(11-cyano-6,11-dihydrodibenz[b,e]oxepin-11-yl)propyl]piperidin-4-ol] | < 1 |
| N#CC1(CCCN2CCC(O)(c3ccc(F)cc3)CC2)c2ccccc2COc2ccccc21 (centres unmarked) [Example 4, 1-[3-(11-Cyano-6,11-dihydrodibenz[b,e]oxepin-11-yl)propyl]-4-(4-fluorophenyl)piperidin-4-ol] | < 1 |
| N#CC1(CCCN2CCC(O)(c3ccc(Cl)cc3)CC2)c2ccccc2COc2ccc(F)cc21 (centres unmarked) [Example 5, 4-(4-Chlorophenyl)-1-[3-(11-cyano-6,11-dihydro-2-fluorodibenz[b,e]oxepin-11-yl)propyl]piperidin-4-ol] | < 1 |
| N#CC1(CCCN2CCC(O)(c3ccc(Cl)cc3)CC2)c2ccccc2COc2ccc(Br)cc21 (centres unmarked) [Example 6, 1-[3-(2-Bromo-11-cyano-6,11-dihydrodibenz[b,e]oxepin-11-yl)propyl]-4-(4-chlorophenyl)piperidin-4-ol] | < 1 |
| Cc1ccc2c(c1)C(C#N)(CCCN1CCC(O)(c3ccc(Cl)cc3)CC1)c1ccccc1CO2 (centres unmarked) [Example 7, 4-(4-Chlorophenyl)-1-[3-(11-cyano-6,11-dihydro-2-methyldibenz[b,e]oxepin-11-yl)propyl]piperidin-4-ol] | < 1 |
| N#CC1(CCCN2CCC(O)(c3ccccc3)CC2)c2ccccc2CSc2ccccc21 (centres unmarked) [Example 11, 1-[3-(11-Cyano-6,11-dihydrodibenzo[b,e]thiepin-11-yl)propyl]-4-phenylpiperidin-4-ol] | < 100 |
| N#CC1(CCCN2CCC(O)(c3ccc(Br)cc3)CC2)c2ccccc2CSc2ccccc21 (centres unmarked) [Example 12, 4-(4-Bromophenyl)-1-[3-(11-cyano-6,11-dihydrodibenzo[b,e]thiepin-11-yl)propyl]piperidin-4-ol] | < 1 |
| N#CC1(CCCN2CCC(O)(c3ccc(Cl)cc3)CC2)c2ccccc2CSc2ccc(Br)cc21 (centres unmarked) [Example 13, 1-[3-(2-Bromo-11-cyano-6,11-dihydrodibenzo[b,e]thiepin-11-yl)propyl]-4-(4-chlorophenyl)piperidin-4-ol] | < 1 |
| N#CC1(CCCN2CCC(O)(c3ccc(Cl)cc3)CC2)c2ccccc2CS(=O)(=O)c2ccccc21 (centres unmarked) [Example 16, 4-(4-Chlorophenyl)-1-[3-(11-cyano-6,11-dihydro-5,5-dioxodibenzo[b,e]thiepin-11-yl)propyl]piperidin-4-ol] | < 1 |
| OC1(c2ccc(Cl)cc2)CCN(CCCC2c3ccccc3CSc3ccccc32)CC1 (centres unmarked) [Example 17, 4-(4-Chlorophenyl)-1-[3-(6,11-dihydrodibenzo[b,e]thiepin-11-yl)propyl]piperidin-4-ol] | < 1 |
| OC1(c2ccc(Cl)cc2)CCN(CCCC2c3ccccc3CCc3ccccc32)CC1 [Example 18, 4-(4-Chlorophenyl)-1-[3-(10,11-dihydro-5H-dibenzo[a,d]cycloheptene-5-yl)propyl]piperidin-4-ol] | < 1 |
| OC1(c2ccc(Cl)cc2)CCN(CCCC2c3ccccc3COc3ccccc32)CC1 (centres unmarked) [Example 19, 4-(4-Chlorophenyl)-1-[3-(6,11-dihydrodibenz[b,e]oxepin-11-yl)propyl]piperidin-4-ol] | < 1 |
| O=C(NCCCO)NCC1(CCCN2CCC(O)(c3ccc(Cl)cc3)CC2)c2ccccc2CSc2ccccc21 (centres unmarked) [Example 23, 1-[11-[3-(4-(4-chlorophenyl)-4-hydroxypiperidino)propyl]-6,11-dihydrodibenzo[b,e]thiepin-11-yl]methyl-8-(3-hydroxypropyl)urea] | < 10 |

Same assay, conditions: read-out: IC50 (inhibitor concentration required for 50% inhibition of specific binding); 125I-RANTES or 125I-MIP-1α as ligand; THP-1 cell membranes; 60 min at room temperature

| SMILES | IC50 [µM] |
| --- | --- |
| N#CC1(CCCN2CCC(O)(c3ccc(Cl)cc3)CC2)c2ccccc2C[S+]([O-])c2ccccc21 (single isomer, unassigned) [Example 15, 4-(4-Chlorophenyl)-1-[3-(11-cyano-6,11-dihydro-5-oxodibenzo[b,e]thiepin-11-yl)propyl]piperidin-4-ol] | < 1 |
